# From patent US20190184069A1, “ANTIMICROBIAL COMPOSITIONS COMPRISING MINOCYCLINE AND DEGRADATION PRODUCTS OF OXIDIZED CELLULOSE” (Omrix Biopharmaceuticals Ltd., priority 2017, published 2019)
# Entries after “also recorded” stand apart in the source; their conditions may differ.
# Assays:
# S. aureus [1] = experiment: Primary stage MIC measurement of antibiotic alone (OD 600 nm growth curves, 18 h); format: cell-based, Staphylococcus aureus
# Source text: The following day, the turbidity of the actively-growing broth culture was adjusted with Calcium-adjusted Mueller Hinton broth II (MHBII) to be equivalent to that of a 0.5 McFarland standard (1×10^8 CFU/ml). The broth culture was maintained under ambient conditions prior to use.
# The method used in this stage was based on the classic Minimum Inhibitory Concentration (MIC) measurements, as described by the Clinical and Laboratory Standards Institute (CLSI) document M07-A9: “Method for Dilution Antimicrobial Susceptibility Test for Bacteria that Grow Aerobically”. While classic MIC measurements require visual inspection of plates for bacterial growth after 18 hours, growth was monitored in the present study according to optical density (OD) at 600 nm, using an ELISA reader (MultiSkan™ FC ELISA reader, Thermo Fisher Scientific, Massachusetts, USA), thereby obtaining bacterial growth curves for tested antibiotic solutions.
# Columns 1 and 3-12: 100 μl of MHBII alone was added to each well.
# […]: 200 μl of a solution of antibiotic in MHBII at the highest concentration to be tested was added to each well.
# A series of 2-fold dilutions was performed, wherein 100 μl of solution of antibiotic was withdrawn from each well of column 2, transferred to the corresponding well of column 3, and mixed.
# The dilution was then repeated by transfer from column 3 to column 4, and so on, until column 11, when the 100 μl of solution of antibiotic withdrawn from each well of column 11 was discarded.
# (§1) The 5×10^6 CFU/ml stock suspension which had been prepared in advance was transferred into a reservoir and 10 μl of the stock suspension were added into each well of columns 2-11 using a multichannel pipette to obtain a final 5×10^5 CFU/ml suspension.
# The plate was then incubated at 37° C. with shaking in the ELISA reader and the optical density at 600 nm was read every 20 minutes for a total of 18 hours.
# The average OD reading obtained for each antibiotic concentration was calculated and plotted against time to obtain a growth curve.
# The MIC was determined as the first antibiotic concentration at which […] by the end of the 18-hour period.
# S. aureus [2] = experiment: Secondary stage: bacterial growth (ET50/MIC) of antibiotics with or without extract of degradation products of ORC; format: cell-based, Staphylococcus aureus; conditions: for Effect of addition of degradation products of ORC on the antibiotic activity: antibiotic with versus without ORC degradation products
# Source text: ORC pads which had not been impregnated with antibiotic (referred to herein as “blank ORC pads”), were subjected to extraction and degradation in PBS for three hours at ambient temperature. Extract obtained from these blank ORC pads is referred to herein as “blank extract of degradation products of ORC”.
# Blank ORC pads were subjected to extraction and degradation in a solution of antibiotic in PBS. Extracts of degradation products obtained from blank ORC pads in a solution of antibiotic in PBS is referred to herein as “extracts of degradation products of blank ORC in antibiotic”.
# Due to the acidity of ORC, which provides some antibiotic effect, the size of the pad used was small i.e. approximately 1×1.5 inch, weighing between 65-75 mg (70 mg on average) in order to prevent the ORC from affecting the final pH of the assay and therefore the growth of the bacteria.
# 15 ml tubes, each containing 3 ml of an antibiotic solution at a known concentration in sterile PBS, were prepared in duplicate.
# Blank ORC pads were subjected to extraction and degradation in the antibiotic solution by immersing the ORC pads in the antibiotic solution for 3-5 hours at ambient temperature on a roller mixer (Stuart, Cat#SRT9D).
# Blank extract of degradation products of ORC and extract in antibiotic of degradation products of ORC, prepared as described above, were diluted 10 folds in MHBII in sterile 15 ml capped tubes.
# as §1
# Columns 3 to 6, rows B to F, were filled with the Blank ORC extracted in antibiotic at decreasing concentrations 1 to 5, diluted 10 folds in MHBII. Each sample tested was placed in 4 well repeats for statistical results.
# Columns 7 to 10, rows B to F, were filled with the antibiotic solution (AB) at decreasing concentrations 1 to 5, diluted 10 folds in MHBII. Each sample tested was placed in 4 well repeats for statistical results.
# Columns 3 to 6, row G, were filled with the blank extract of degradation products of ORC (PBS-ORC) diluted 10 folds in MHBII.
# The plate was incubated at 37° C. with shaking in the ELISA reader and the optical density at 600 nm was read every 20 minutes for a total of 18 hours.
# The average and standard deviation for OD readings was calculated for each time point of the wells using Excel. The average values were plotted against time to obtain a graph of the bacterial growth curves in the presence of each of the antibiotics tested.
# In some cases, the average OD was plotted for a single endpoint of 800 minutes for the various antibiotic treatments and controls.
# The average values were also entered into the GraphPad Prism program (GraphPad Software Inc., CA, USA) in order to calculate the Effective Time 50 (ET50) i.e. the time, in minutes, required for the antibiotic to induce a response halfway between the baseline and maximum, where the maximum is the bacterial growth in MHBII with PBS. This provides a quantifiable measure of the efficacy of the antibiotics tested and enables comparison of the various samples tested.
# S. aureus [3] = experiment: Tertiary stage: antimicrobial activity (ET50/MIC) of extract of degradation products of antibiotic-impregnated ORC pads, single or combination; format: cell-based, Staphylococcus aureus; conditions: impregnated on ORC pad together with 1.26 ng/ml minocycline
# Experimental: Solutions comprising different concentrations of antibiotics to be tested were prepared in methanol.
# Blank ORC pads of dimensions 1×1.5 inch, weighing between 65-75 mg (70 mg on average), in duplicate, were immersed in the antibiotic solutions and then dried using a rotary evaporator to provide extract of degradation products of antibiotic-impregnated ORC pads.
# 15 ml test tubes containing 3 ml of sterile PBS were prepared, and the antibiotic-impregnated ORC pads were immersed in the tubes and incubated for 3-5 hours at ambient temperature on a roller mixer (Stuart, Cat#SRT9D).
# Each of the above extracts was filtered out using a sterile 0.8/0.2 μm syringe filter into a clean 15 ml tube. These extraction fluids are referred to herein as “extract of degradation products of antibiotic-impregnated ORC”.
# Briefly, ORC pads weighing on average 70 mg each were impregnated with the selected antibiotic. Extracts of degradation products of antibiotic-impregnated ORC were prepared by immersion and incubation in 3 ml of sterile PBS for 3 hours at ambient temperature. The ORC degeneration products were then removed, and any remaining ORC particles were filtered out using a […] syringe filter. This extraction fluid was then diluted 10-fold into Muller Hinton growth medium containing bacteria. Bacterial growth was monitored every 20 min for a total of 18 hours according to optical density (OD) at 600 nm, using an ELISA reader.
# Since the study included many possible combinations of two antibiotics, each with their own different concentration range, a matrix of possible antibiotic concentrations was designed, and degradation products of ORC were prepared accordingly (see Table 10). Since all the possible combinations could not be fitted into one 96 well plate, a series of MIC experiments were carried out.
# S. aureus [4] = conditions: cited from earlier work
molecule,measurement,setting,value
"CCC[C@@H]1C[C@@H](C(=O)N[C@@H]([C@H]2O[C@H](SC)[C@H](O)[C@@H](O)[C@H]2O)[C@H](C)Cl)N(C)C1 [Clindamycin, clindamycin]",MIC as single antibiotics in the absence of ORC (first stage MIC results),S. aureus [1],62 ng/mL
same,Effect of addition of degradation products of ORC on the antibiotic activity,S. aureus [2],no effect
same,Clindamycin level sufficient for growth inhibition of S. aureus in combination,S. aureus [3],8.9 ng/mL
CN(C)[C@@H]1C(O)=C(C(N)=O)C(=O)[C@@]2(O)C(O)=C3C(=O)c4c(O)cccc4[C@@](C)(O)[C@H]3C[C@@H]12 [Tetracycline],Effect of addition of degradation products of ORC on the antibiotic activity,S. aureus [2],no effect
same,ET50,"S. aureus [2]; tetracycline 0.025 μg/ml, +ORC degradation products",517.7 min
same,ET50,"S. aureus [2]; tetracycline 0.025 μg/ml, −ORC",531.1 min
same,ET50,"S. aureus [2]; tetracycline 0.05 μg/ml, +ORC degradation products",741.1 min
same,ET50,"S. aureus [2]; tetracycline 0.05 μg/ml, −ORC",989.9 min
same,ET50,"S. aureus [2]; tetracycline 0.1 μg/ml, +ORC degradation products",1470 min
same,ET50,"S. aureus [2]; tetracycline 0.1 μg/ml, −ORC",1889 min
same,ET50,"S. aureus [2]; tetracycline 0.2 μg/ml, +ORC degradation products",>2000 min
same,ET50,"S. aureus [2]; tetracycline 0.2 μg/ml, −ORC",>2000 min
same,ET50,"S. aureus [2]; tetracycline 0.4 μg/ml, +ORC degradation products",>2000 min
same,ET50,"S. aureus [2]; tetracycline 0.4 μg/ml, −ORC",>2000 min
Gentamycin [Gentamicin],MIC values for S. aureus according to the literature,S. aureus [4],0.12 to 1 µg/mL
same,"MIC values found in the present study (primary stage, Example 1)","S. aureus [1]; antibiotic alone, no ORC",0.25 µg/mL
same,Effect of addition of degradation products of ORC on the antibiotic activity,S. aureus [2],reduction in the antibiotic activity; also recorded: decreased antibiotic activity; also recorded: lowering of the antibiotic activity; also recorded: impaired
same,ET50,"S. aureus [2]; gentamycin 0.1 μg/ml, +ORC degradation products",423.7 min
same,ET50,"S. aureus [2]; gentamycin 0.1 μg/ml, −ORC",509.4 min
same,ET50,"S. aureus [2]; gentamycin 0.3 μg/ml, +ORC degradation products",429.3 min
same,ET50,"S. aureus [2]; gentamycin 0.3 μg/ml, −ORC",1360 min
same,ET50,"S. aureus [2]; gentamycin 0.5 μg/ml, +ORC degradation products",423.1 min
same,ET50,"S. aureus [2]; gentamycin 0.8 μg/ml, +ORC degradation products",422.7 min
same,ET50,"S. aureus [2]; gentamycin 1 μg/ml, +ORC degradation products",446.6 min
